The record followed here is patent US11999727B2 (Tango Therapeutics, Inc., priority 2020, dated 2024).

Some results are limits rather than exact numbers.

Assay [1] concerns the target T1, PRMT5 (Homo sapiens, UniProt O14744).
T1 construct: purchased Viva (custom protein)
As to the kind of experiment: PRMT5 biochemical IC50 assay with MTA as cofactor. The conditions noted are these: PRMT5, MTA as cofactor; read-out: MTA IC50.

The test system of assay [2] is HAP1 MTAP-deleted cell line. The experiment in a line: SDMA in-cell western assay, HAP1 MTAP-deleted. It counts as cell-based. As to conditions: for IC50: Homo sapiens, HAP1, SDMA in-cell western, HAP1 MTAP-deleted, read-out: HAP 1 MTAP deleted IC50; for MTAP intact/deleted ratio: IC50 ratio HAP1 MTAP-intact / HAP1 MTAP-deleted, SDMA in-cell western. The procedure, abridged:
(§1)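 IC50 values come from SDMA signal quantified by in-cell western in two HAP1 lines, one with native MTAP levels and one lacking MTAP.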

Assay [3] deals with HAP1 MTAP-deleted cell line. The experiment in a line: Viability assay, MTAP-deleted cell line. The format is cell-based. As to conditions: Homo sapiens, HAP1, viability assay, MTAP-deleted cell line; read-out: HAP1 MTAP deleted viability. From the text: Table 1 additionally indicates IC50 values in a viability assay for the MTAP-deleted cell line (column 10), indicating the effect of treatment with compound on cell survival.

Assay [4] deals with T1, PRMT5. The experiment in a line: PRMT5 biochemical IC50 assay with SAM as cofactor. As to conditions: PRMT5, SAM as cofactor; read-out: SAM IC50.
Assay [5] concerns HAP1 MTAP-intact cell line. The experiment in a line: SDMA in-cell western assay, HAP1 MTAP-intact. The conditions noted are these: Homo sapiens, HAP1, SDMA in-cell western, HAP1 MTAP-intact; read-out: MTAP HAP1 intact IC50. It counts as cell-based. The gist of the method: as §1
Assay [6] addresses T1, PRMT5. The experiment in a line: PRMT5 biochemical IC50 assay with no cofactor. The conditions noted are these: PRMT5, no cofactor; read-out: No Cofactor/ rel IC50. The source says: Table 1 indicates IC50 values (μM) against PRMT5 for exemplary compounds in the presence of SAM as cofactor, with no cofactor, and with MTA as cofactor, respectively (columns 4-6). […] Ki values can be calculated from the IC50 values as described in the Examples section. As detailed in the Examples section, for the assay performed in the presence of SAM, IC50=Ki×1.5 (Ki=IC50/1.5).

T1 sequence (O14744 whole entry): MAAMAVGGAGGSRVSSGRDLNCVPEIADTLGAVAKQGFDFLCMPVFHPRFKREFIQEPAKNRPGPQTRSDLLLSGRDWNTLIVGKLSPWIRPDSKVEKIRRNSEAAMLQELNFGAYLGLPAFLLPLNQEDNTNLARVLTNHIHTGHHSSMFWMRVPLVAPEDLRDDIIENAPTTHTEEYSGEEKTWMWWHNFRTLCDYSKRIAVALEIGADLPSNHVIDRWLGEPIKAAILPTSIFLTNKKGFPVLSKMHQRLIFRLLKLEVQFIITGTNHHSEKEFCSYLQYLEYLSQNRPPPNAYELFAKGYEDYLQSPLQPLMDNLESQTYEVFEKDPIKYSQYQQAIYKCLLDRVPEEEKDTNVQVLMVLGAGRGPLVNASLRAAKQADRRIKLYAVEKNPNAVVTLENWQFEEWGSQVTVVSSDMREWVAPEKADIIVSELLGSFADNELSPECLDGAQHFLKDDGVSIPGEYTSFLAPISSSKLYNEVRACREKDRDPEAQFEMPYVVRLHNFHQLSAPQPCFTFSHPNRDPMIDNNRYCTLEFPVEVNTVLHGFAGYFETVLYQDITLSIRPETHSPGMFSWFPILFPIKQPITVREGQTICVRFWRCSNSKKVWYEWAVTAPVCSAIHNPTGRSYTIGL
T1 sequence (Q9BQA1 whole entry partner): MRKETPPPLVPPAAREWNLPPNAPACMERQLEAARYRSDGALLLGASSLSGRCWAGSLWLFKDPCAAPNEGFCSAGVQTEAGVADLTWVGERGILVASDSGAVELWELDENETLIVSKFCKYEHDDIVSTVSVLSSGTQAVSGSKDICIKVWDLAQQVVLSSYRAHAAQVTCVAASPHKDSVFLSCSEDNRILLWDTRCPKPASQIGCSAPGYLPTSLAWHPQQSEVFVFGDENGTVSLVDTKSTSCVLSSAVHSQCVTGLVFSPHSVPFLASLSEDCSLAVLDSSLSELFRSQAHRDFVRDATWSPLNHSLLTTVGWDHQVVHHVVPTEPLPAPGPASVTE

On to `Cc1cc(C)n(-c2cccc([C@@H]3CC[C@@H](C)CN3C(=O)C(=O)Nc3cncc(C(N)=O)c3)c2)n1` (racemic) [Compound 153, rac-5-{2-[(2R,5S)-2-[3-(3,5-Dimethyl-1H-pyrazol-1-yl)phenyl]-5-methylpiperidin-1-yl]-2-oxoacetamido}pyridine-3-carboxamide], for which the IC50 is 50 to 500 nM on PRMT5 [1]; under 100 nM in assay [2]; 1000 to 10000 nM in assay [3]; 50 to 500 nM on PRMT5 [4]; over 1000 nM in assay [5]; 50 to 500 nM at PRMT5 [6]. Further, the “MTAP intact/deleted ratio” value in assay [2] is reported as “A (an IC50 ratio greater than or equal to 10 fold)”.

For the molecule `C[C@@H]1CC[C@@H](c2ccccc2)N(C(=O)C(=O)Nc2cncc(C(N)=O)c2)[C@@H]1C` (racemic) [Compound 154, rac-5-[[2-[(2R,3R,6S)-2,3-dimethyl-6-phenyl-1-piperidyl]-2-oxo-acetyl]amino]pyridine-3-carboxamide], the IC50 was under 50 nM at PRMT5 [1]; over 1000 nM in assay [2]; over 10000 nM in assay [3]; 50 to 500 nM on PRMT5 [4]; over 1000 nM in assay [5]; 50 to 500 nM at PRMT5 [6]. Also, in assay [2], the “MTAP intact/deleted ratio” value is given as “B (an IC50 ratio greater than or equal to 3 fold but lower than 10 fold)”.

`C[C@@H]1CC[C@@H](C2CCC2)N(C(=O)C(=O)Nc2cncc(C(N)=O)c2)C1` (racemic) [Compound 155, 5-[[2-[(2R,5S)-2-cyclobutyl-5-methyl-1-piperidyl]-2-oxo-acetyl]amino]pyridine-3-carboxamide]: the IC50 on PRMT5 [1] was under 50 nM; in assay [2] it was 100 to 1000 nM; in assay [3], over 10000 nM; at PRMT5 [4] it was 50 to 500 nM; in assay [5], over 1000 nM; on PRMT5 [6] it was 50 to 500 nM. Also, the “MTAP intact/deleted ratio” value in assay [2] is given as “A (an IC50 ratio greater than or equal to 10 fold)”.

Turning to `Cc1cc(C)n(-c2ccc([C@@H]3CC[C@@H](C)CN3C(=O)C(=O)Nc3cncc(C(N)=O)c3)cc2)n1` (racemic) [Compound 157, rac-5-{2-[(2R,5S)-2-[4-(3,5-Dimethyl-1H-pyrazol-1-yl)phenyl]-5-methylpiperidin-1-yl]-2-oxoacetamido}pyridine-3-carboxamide], the IC50 at PRMT5 [1] was 50 to 500 nM; in assay [2], over 1000 nM; in assay [3], over 10000 nM; on PRMT5 [4] it was 50 to 500 nM; in assay [5], over 1000 nM; on PRMT5 [6] it was 50 to 500 nM. Further, the “MTAP intact/deleted ratio” value in assay [2] is given as “B (an IC50 ratio greater than or equal to 3 fold but lower than 10 fold)”.

As to `Cc1cc(NC(=O)C(=O)N2C[C@H](C)CC[C@H]2C)cnc1N` (racemic) [Compound 158, N-(6-amino-5-methyl-3-pyridyl)-2-[(2R,5R)-2,5-dimethyl-1-piperidyl]-2-oxo-acetamide], the IC50 on PRMT5 [1] is 50 to 500 nM; in assay [2] it was over 1000 nM; in assay [3], over 10000 nM; at PRMT5 [4], 50 to 500 nM; in assay [5], over 1000 nM; at PRMT5 [6] it was 50 to 500 nM. For the same molecule, in assay [2], the “MTAP intact/deleted ratio” value was “C (an IC50 ratio of less than 3 fold)”.

For the molecule `Cc1ccc([C@@H]2CC[C@@H](C)CN2C(=O)C(=O)Nc2cncc(C(N)=O)c2)cc1F` (racemic) [Compound 162, rac-5-{2-[(2R,5S)-2-(3-Fluoro-4-methylphenyl)-5-methylpiperidin-1-yl]-2-oxoacetamido}pyridine-3-carboxamide], the IC50 is under 50 nM at PRMT5 [1]; under 100 nM in assay [2]; 1000 to 10000 nM in assay [3]; 50 to 500 nM on PRMT5 [4]; over 1000 nM in assay [5]; 50 to 500 nM at PRMT5 [6]. For the same molecule, the “MTAP intact/deleted ratio” value in assay [2] was “A (an IC50 ratio greater than or equal to 10 fold)”.

Take `C[C@@H]1CC[C@H](c2ccccc2)N(C(=O)C(=O)Nc2cncc(C(N)=O)c2)[C@@H]1C` (racemic) [Compound 163, rac-5-[[2-[(2R,3R,6R)-2,3-dimethyl-6-phenyl-1-piperidyl]-2-oxo-acetyl]amino]pyridine-3-carboxamide]: the IC50 was under 50 nM at PRMT5 [1]; 100 to 1000 nM in assay [2]; over 10000 nM in assay [3]; 50 to 500 nM on PRMT5 [4]; over 1000 nM in assay [5]; 50 to 500 nM at PRMT5 [6]. The “MTAP intact/deleted ratio” value in assay [2] is “A (an IC50 ratio greater than or equal to 10 fold)”.

`Cc1cc(NC(=O)C(=O)N2C[C@H](C)CC[C@H]2C(C)C)cnc1N` (racemic) [Compound 165, N-(6-amino-5-methyl-3-pyridyl)-2-[(2S,5R)-2-isopropyl-5-methyl-1-piperidyl]-2-oxo-acetamide]: the IC50 is under 50 nM on PRMT5 [1]; 100 to 1000 nM in assay [2]; over 10000 nM in assay [3]; 50 to 500 nM on PRMT5 [4]; over 1000 nM in assay [5]; 50 to 500 nM at PRMT5 [6]. Also, the “MTAP intact/deleted ratio” value in assay [2] was “A (an IC50 ratio greater than or equal to 10 fold)”.

Turning to `Cc1ccc2cc([C@@H]3CC[C@@H](C)CN3C(=O)C(=O)Nc3cncc(C(N)=O)c3)ccc2n1` (racemic) [Compound 167, rac-5-{2-[(2R,5S)-5-Methyl-2-(2-methylquinolin-6-yl)piperidin-1-yl]-2-oxoacetamido}pyridine-3-carboxamide], the IC50 was under 50 nM at PRMT5 [1]; 100 to 1000 nM in assay [2]; 1000 to 10000 nM in assay [3]; 50 to 500 nM at PRMT5 [4]; over 1000 nM in assay [5]; 50 to 500 nM on PRMT5 [6]. Moreover, the “MTAP intact/deleted ratio” value in assay [2] was “A (an IC50 ratio greater than or equal to 10 fold)”.

With `Cc1cc(NC(=O)C(=O)N2C[C@H](C)CC[C@@H]2C)cnc1N` (racemic) [Compound 168, N-(6-amino-5-methyl-3-pyridyl)-2-[(2S,5R)-2,5-dimethyl-1-piperidyl]-2-oxo-acetamide], the IC50 on PRMT5 [1] is 50 to 500 nM; in assay [2] it was over 1000 nM; in assay [3], over 10000 nM; at PRMT5 [4] it was 50 to 500 nM; in assay [5], over 1000 nM; on PRMT5 [6] it was 50 to 500 nM. Moreover, in assay [2], the “MTAP intact/deleted ratio” value was “C (an IC50 ratio of less than 3 fold)”.

Regarding `Cc1cc([C@@H]2CC[C@@H](C)CN2C(=O)C(=O)Nc2cncc(C(N)=O)c2)ccc1OC1CCOC1` (mixture of isomers) [Compound 171, rac-5-{2-[(2R,5S)-5-Methyl-2-[3-methyl-4-(oxolan-3-yloxy)phenyl]piperidin-1-yl]-2-oxoacetamido}pyridine-3-carboxamide], the IC50 was under 50 nM at PRMT5 [1]; under 100 nM in assay [2]; 1000 to 10000 nM in assay [3]; 50 to 500 nM on PRMT5 [4]; over 1000 nM in assay [5]; 50 to 500 nM at PRMT5 [6]. Also, in assay [2], the “MTAP intact/deleted ratio” value is “A (an IC50 ratio greater than or equal to 10 fold)”.

As to `C[C@@H]1CC[C@@H](C2CCCC2)N(C(=O)C(=O)Nc2cncc(C(N)=O)c2)C1` (racemic) [Compound 172, 5-(2-(2-cyclopentyl-5-methylpiperidin-1-yl)-2-oxoacetamido)nicotinamide], the IC50 was under 50 nM on PRMT5 [1]; 100 to 1000 nM in assay [2]; over 10000 nM in assay [3]; 50 to 500 nM at PRMT5 [4]; over 1000 nM in assay [5]; 50 to 500 nM on PRMT5 [6]. The “MTAP intact/deleted ratio” value in assay [2] was “A (an IC50 ratio greater than or equal to 10 fold)”.
